Entries after “also recorded” stand apart in the source; their conditions may differ. Read-outs that look alike come from different tables or passages of the source. Blank lines part the entries; values can stand above or below the molecule they belong to.
Assays:
[1] = Water intake of NZB/W F1 lupus mice; assay type: in vivo; set-up: Water intake: unit not given beside the values; conditions: Example 1; for Water intake: mean ± SE
[2] = system: anti-dsDNA autoantibodies; test: Serum anti-DNA antibodies in NZB/W F1 lupus mice; conditions: Example 1; for Serum anti-DNA antibodies: mean ± SE
[3] = Body weight of NZB/W F1 lupus mice; conditions: Example 1; for Body Weight: mean ± SE
[4] = Serum transaminase (AST, ALT) in NZB/W F1 lupus mice; conditions: Example 1; for Serum Transaminase ALT / Serum Transaminase AST: mean ± SE
[5] = Food intake of NZB/W F1 lupus mice; assay type: in vivo; conditions: Example 1; for Food Intake: mean ± SE
[6] = target: T1, AurA (Homo sapiens, UniProt O14965); test: In-house kinase assay (32P incorporation); assay type: biochemical; conditions: in-house kinase assays
T1 sequence (O14965 1-403): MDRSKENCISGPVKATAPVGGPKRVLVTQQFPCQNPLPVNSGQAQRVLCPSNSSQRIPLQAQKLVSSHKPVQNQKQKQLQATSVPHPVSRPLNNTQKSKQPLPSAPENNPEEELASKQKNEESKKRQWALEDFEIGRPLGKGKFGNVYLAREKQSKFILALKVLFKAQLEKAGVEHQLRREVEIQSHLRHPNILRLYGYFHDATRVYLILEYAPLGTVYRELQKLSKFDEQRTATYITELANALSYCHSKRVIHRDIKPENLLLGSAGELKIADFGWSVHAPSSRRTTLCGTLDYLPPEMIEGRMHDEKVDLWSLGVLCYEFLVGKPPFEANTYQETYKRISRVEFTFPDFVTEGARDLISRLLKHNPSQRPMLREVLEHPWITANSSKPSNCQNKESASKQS
Procedure: (§1) Kinase activity was investigated by measuring the incorporation of radioactive phosphate from ATP into appropriate polypeptide substrates. Recombinant protein kinases and kinase complexes were produced or obtained commercially. Assays were performed using 96-well plates and appropriate assay buffers (typically 25 mM β-glycerophosphate, 20 mM MOPS, 5 mM EGTA, 1 mM DTT, 1 mM […], pH 7.4), into which were added 2-4 μg of active enzyme with appropriate substrates. The reactions were initiated by addition of Mg/ATP mix (15 mM MgCl2+100 μM ATP with 30-50 kBq per well of [γ-^32P]-ATP) and mixtures incubated as required at 30° C. Reactions were stopped on ice, followed by filtration through p81 filterplates or GF/C filterplates (Whatman Polyfiltronics, Kent, UK). After washing 3 times with 75 mM aq orthophosphoric acid, plates were dried, scintillant added and incorporated radioactivity measured in a scintillation counter (TopCount, Packard Instruments, Pangbourne, Berks, UK). Compounds for kinase assay were made up as 10 mM stocks in DMSO and diluted into 10% DMSO in assay buffer.

[7] = target: CDK1B (Homo sapiens, UniProt P06493); test: In-house kinase assay (32P incorporation); assay type: biochemical; conditions: in-house kinase assays
CDK1B, sequence (P06493 whole entry): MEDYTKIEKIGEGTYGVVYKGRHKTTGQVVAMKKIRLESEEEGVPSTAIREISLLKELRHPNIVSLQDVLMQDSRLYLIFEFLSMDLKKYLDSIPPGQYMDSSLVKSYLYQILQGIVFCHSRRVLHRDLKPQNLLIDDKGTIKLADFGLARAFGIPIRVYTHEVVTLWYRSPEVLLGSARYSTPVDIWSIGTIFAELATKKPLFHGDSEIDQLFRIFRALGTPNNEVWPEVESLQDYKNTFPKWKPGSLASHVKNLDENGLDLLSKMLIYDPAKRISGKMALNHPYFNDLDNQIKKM
CDK1B, sequence (P14635 whole entry partner): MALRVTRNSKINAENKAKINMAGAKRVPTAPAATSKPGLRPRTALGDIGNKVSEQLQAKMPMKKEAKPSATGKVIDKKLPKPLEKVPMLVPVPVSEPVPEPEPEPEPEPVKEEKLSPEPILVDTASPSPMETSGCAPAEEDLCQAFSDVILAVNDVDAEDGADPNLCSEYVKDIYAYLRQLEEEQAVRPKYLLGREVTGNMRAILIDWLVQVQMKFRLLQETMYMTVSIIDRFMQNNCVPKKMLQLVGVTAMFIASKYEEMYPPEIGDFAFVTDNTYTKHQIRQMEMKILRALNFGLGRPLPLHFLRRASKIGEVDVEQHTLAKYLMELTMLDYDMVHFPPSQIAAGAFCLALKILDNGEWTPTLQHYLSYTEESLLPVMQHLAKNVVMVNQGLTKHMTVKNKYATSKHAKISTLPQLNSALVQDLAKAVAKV
Procedure: as §1

[8] = target: AurB (Homo sapiens, UniProt Q96GD4); test: In-house kinase assay (32P incorporation); assay type: biochemical; conditions: in-house kinase assays
AurB, sequence (Q96GD4 whole entry): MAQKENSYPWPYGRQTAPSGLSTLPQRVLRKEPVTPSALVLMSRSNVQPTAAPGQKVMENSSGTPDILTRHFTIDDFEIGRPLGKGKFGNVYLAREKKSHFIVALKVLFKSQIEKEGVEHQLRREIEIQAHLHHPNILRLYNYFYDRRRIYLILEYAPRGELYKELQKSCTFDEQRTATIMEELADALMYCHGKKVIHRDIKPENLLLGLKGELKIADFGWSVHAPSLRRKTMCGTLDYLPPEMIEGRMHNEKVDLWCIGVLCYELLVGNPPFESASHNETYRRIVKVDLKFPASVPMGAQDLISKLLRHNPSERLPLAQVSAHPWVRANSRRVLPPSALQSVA
Procedure: as §1

[9] = target: CDK6D3 (Homo sapiens, UniProt Q00534); test: In-house kinase assay (32P incorporation); assay type: biochemical; conditions: in-house kinase assays
CDK6D3, sequence (Q00534 whole entry): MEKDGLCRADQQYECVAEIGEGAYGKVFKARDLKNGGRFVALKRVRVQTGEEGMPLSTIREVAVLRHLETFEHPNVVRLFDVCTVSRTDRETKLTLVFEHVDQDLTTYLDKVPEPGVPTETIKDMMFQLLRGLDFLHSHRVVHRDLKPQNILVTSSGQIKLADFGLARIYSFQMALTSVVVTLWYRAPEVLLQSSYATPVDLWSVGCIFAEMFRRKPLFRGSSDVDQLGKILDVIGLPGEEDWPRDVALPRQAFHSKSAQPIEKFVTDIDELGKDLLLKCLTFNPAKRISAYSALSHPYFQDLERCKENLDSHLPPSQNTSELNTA
CDK6D3, sequence (P30281 whole entry partner): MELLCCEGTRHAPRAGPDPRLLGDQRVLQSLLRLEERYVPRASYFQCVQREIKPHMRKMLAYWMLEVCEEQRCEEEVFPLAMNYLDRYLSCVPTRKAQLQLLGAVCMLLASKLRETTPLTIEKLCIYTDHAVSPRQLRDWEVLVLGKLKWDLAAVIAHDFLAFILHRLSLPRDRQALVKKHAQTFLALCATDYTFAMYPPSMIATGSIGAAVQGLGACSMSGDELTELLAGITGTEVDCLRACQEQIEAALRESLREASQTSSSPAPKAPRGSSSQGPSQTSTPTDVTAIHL
Procedure: as §1

[10] = target: CDK9/cyclin T1 (Homo sapiens, UniProt P50750); test: CDK 7 and 9 assay (CTD peptide substrate); assay type: biochemical; conditions: in-house kinase assays; read-out: Average IC50 CDK9T1
CDK9/cyclin T1, sequence (P50750 whole entry): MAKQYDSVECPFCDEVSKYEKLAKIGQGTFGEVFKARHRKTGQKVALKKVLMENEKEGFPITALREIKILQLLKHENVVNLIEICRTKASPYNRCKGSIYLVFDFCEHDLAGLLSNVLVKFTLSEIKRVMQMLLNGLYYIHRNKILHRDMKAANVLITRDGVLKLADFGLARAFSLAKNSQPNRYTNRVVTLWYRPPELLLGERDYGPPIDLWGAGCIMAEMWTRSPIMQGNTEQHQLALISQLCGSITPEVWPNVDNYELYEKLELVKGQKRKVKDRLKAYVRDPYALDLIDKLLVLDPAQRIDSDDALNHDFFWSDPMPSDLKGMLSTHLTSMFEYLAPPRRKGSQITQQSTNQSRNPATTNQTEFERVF
CDK9/cyclin T1, sequence (O60563 whole entry partner): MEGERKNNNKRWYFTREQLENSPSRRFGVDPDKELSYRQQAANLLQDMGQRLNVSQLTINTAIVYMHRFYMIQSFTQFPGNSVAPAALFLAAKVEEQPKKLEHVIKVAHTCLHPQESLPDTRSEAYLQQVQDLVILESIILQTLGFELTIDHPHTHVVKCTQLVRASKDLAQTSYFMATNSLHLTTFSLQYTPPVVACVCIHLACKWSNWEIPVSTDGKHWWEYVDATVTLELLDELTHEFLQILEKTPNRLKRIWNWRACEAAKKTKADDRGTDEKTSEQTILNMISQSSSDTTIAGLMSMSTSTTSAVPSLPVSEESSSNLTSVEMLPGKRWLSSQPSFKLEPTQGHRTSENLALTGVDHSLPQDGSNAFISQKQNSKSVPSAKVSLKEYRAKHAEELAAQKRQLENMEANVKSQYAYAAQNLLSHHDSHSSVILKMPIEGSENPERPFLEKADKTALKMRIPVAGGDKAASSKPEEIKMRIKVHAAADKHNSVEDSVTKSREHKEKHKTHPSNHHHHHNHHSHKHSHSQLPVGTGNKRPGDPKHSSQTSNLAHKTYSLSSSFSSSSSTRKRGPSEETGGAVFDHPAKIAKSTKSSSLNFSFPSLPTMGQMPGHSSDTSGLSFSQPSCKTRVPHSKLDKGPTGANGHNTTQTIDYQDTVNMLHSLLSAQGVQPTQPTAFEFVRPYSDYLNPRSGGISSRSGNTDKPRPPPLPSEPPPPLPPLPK
Procedure: as §1
(§2) The reaction was stopped by placing the plate on ice for 2 min. Avidin (50 μg) was added to each well, and the plate was incubated at room temp for 30 min. The samples were transferred to a 96-well P81 filter plate, and washed (4×200 μL per well) with 75 mM phosphoric acid. Microscint 40 scintillation liquid (50 μL) was added to each well, and the amount of ^32P incorporation for each sample was measured using a Packard Topcount microplate scintillation counter.

[11] = target: CDK7/cyclin H (Homo sapiens, UniProt P50613); test: CDK 7 and 9 assay (CTD peptide substrate); assay type: biochemical; conditions: in-house kinase assays; read-out: Average IC50 CDK7H
CDK7/cyclin H, sequence (P50613 whole entry): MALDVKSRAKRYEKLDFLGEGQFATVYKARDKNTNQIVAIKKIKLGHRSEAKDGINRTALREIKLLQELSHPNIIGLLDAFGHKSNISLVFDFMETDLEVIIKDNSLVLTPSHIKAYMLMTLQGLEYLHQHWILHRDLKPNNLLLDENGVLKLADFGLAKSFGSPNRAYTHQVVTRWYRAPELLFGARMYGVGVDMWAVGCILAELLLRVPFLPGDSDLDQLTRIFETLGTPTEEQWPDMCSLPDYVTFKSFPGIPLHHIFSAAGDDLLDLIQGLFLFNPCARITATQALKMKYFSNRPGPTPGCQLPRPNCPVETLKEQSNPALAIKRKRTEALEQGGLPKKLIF
CDK7/cyclin H, sequence (P51946 whole entry partner): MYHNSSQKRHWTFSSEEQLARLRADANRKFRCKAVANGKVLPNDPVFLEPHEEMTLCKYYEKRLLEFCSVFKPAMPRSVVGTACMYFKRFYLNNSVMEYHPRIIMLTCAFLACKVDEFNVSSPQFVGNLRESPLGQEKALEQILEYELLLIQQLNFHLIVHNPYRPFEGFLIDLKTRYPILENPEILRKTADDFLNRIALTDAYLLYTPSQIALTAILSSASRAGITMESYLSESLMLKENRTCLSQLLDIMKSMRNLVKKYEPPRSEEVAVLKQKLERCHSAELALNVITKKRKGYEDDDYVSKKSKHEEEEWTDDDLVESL
Procedure: as §1, §2

[12] = system: tumour cell panels; test: In-house 72 hour cytotoxicity assays on tumour cell panels; assay type: cell-based
[13] = system: stimulated PBMCs; test: T cell proliferation assay (BrdU ELISA in stimulated PBMCs); assay type: cell-based
Procedure: PBMCs were seeded in 96 well plates at 1×10^5 cells/well, in 50 μL per well culture medium. […] All stimulants and compounds were made up to 4× final concentration in tissue culture medium and 25 μL of each drug and stimulant was then added to wells, for a final volume of 100 μL/well. For unstimulated controls, 25 μL tissue culture medium was added to wells instead of stimulant and for untreated cells, 25 μL/well tissue culture medium containing equal volume DMSO (0.1% final) was added. Three adjacent wells were treated for each stimulation/treatment condition and the mean value calculated for analysis.
In addition, PBMCs were stimulated with ConA (Concanavalin A, Sigma C5275) at concentrations ranging from 0.5 μg/mL to 100 μg/mL to identify its stimulatory effect and optimal concentration.
Cells were labelled with BrdU for two hours prior to harvesting. Plates were then centrifuged for 10 minutes at 300 g (RT), supernatant removed from wells by pipetting and cells dried for 1 hour at 60° C. FixDenat solution was added to plates (100 μL/well) and incubated for 30 minutes, then flicked to remove and anti-BrdU-POD solution added to plates (100 μL/well) and incubated for 90 minutes.

[14] = target: CDK4D1 (Homo sapiens, UniProt P11802); test: In-house kinase assay (32P incorporation); assay type: biochemical; conditions: in-house kinase assays
CDK4D1, sequence (P11802 whole entry): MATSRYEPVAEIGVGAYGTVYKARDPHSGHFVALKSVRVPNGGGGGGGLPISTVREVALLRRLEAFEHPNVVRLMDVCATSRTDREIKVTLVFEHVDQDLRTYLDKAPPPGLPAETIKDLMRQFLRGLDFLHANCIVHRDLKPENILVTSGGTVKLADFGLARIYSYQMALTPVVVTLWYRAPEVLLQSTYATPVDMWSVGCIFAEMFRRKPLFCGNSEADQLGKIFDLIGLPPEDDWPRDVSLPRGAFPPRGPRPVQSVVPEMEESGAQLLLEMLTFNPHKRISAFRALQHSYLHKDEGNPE
CDK4D1, sequence (P24385 whole entry partner): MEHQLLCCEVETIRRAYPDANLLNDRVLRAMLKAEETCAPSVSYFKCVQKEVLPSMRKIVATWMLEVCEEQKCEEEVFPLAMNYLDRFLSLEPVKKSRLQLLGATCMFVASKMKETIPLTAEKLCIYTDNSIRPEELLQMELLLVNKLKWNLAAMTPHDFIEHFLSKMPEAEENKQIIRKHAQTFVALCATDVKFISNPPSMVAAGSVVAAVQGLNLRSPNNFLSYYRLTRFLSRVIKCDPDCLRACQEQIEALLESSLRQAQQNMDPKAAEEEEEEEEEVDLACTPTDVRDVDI
Procedure: as §1

[15] = target: CDK2E (Homo sapiens, UniProt P24941); test: In-house kinase assay (32P incorporation); assay type: biochemical; conditions: in-house kinase assays
Procedure: as §1

[16] = 100 mg/kg daily by gavage from 2 months (preventive), age 2 months
[17] = 100 mg/kg daily by gavage from 2 months (preventive), age 2.5 months
[18] = 100 mg/kg daily by gavage from 2 months (preventive), age 3 months
[19] = 100 mg/kg daily by gavage from 2 months (preventive), age 3.5 months
[20] = 100 mg/kg daily by gavage from 2 months (preventive), age 4 months
[21] = 100 mg/kg daily by gavage from 2 months (preventive), age 4.5 months
[22] = 100 mg/kg daily by gavage from 2 months (preventive), age 5 months
[23] = 200 mg/kg daily by gavage from 2 months (preventive), age 2 months
[24] = 200 mg/kg daily by gavage from 2 months (preventive), age 2.5 months
[25] = 200 mg/kg daily by gavage from 2 months (preventive), age 3 months
[26] = 200 mg/kg daily by gavage from 2 months (preventive), age 3.5 months
[27] = 200 mg/kg daily by gavage from 2 months (preventive), age 5 months
[28] = every two weeks from 2 to 5 months
[29] = 100 mg/kg therapeutic (from 5 months)
[30] = rounded IC50 value used for ease of calculation in PBMC assays, read-out: IC50 Used

SMILES: CC[C@H](CO)Nc1nc(NCc2ccccc2)c2ncn(C(C)C)c2n1 [CYC202, 2-(1-R-hydroxymethylpropylamino)-6-benzylamino-9-isopropylpurine]
- Water intake [1, 16]: 6.64 ± 0.29
- Water intake [1, 17]: 5.14 ± 0.40
- Water intake [1, 18]: 4.21 ± 0.28
- Water intake [1, 19]: 5.00 ± 0.28
- Water intake [1, 20]: 5.57 ± 0.20
- Water intake [1, 21]: 4.43 ± 0.20
- Water intake [1, 22]: 3.93 ± 0.22
- Water intake [1, 23]: 5.31 ± 0.26
- Water intake [1, 24]: 4.77 ± 0.20
- Water intake [1, 25]: 4.92 ± 0.18
- Water intake [1, 26]: 5.08 ± 0.21
- Water intake [1, 27]: 4.23 ± 0.28
- Water intake versus vehicle [1, 28]: comparable
- Serum anti-DNA antibodies ([2]; 100 mg/kg preventive, 5 months): 4.04 ± 0.76 U/ml
- Serum anti-DNA antibodies ([2]; 100 mg/kg preventive, 8 months): 76.55 ± 21.40 U/ml
- Serum anti-DNA antibodies ([2]; 200 mg/kg preventive, 5 months): 24.20 ± 6.52 U/ml
- Serum anti-DNA antibodies ([2]; 200 mg/kg preventive, 8 months): 73.39 ± 21.13 U/ml
- Anti-DNA antibody levels versus vehicle ([2]; treated from 2 months, both doses, at 5 or 8 months of age): significantly lower than vehicle
- Body Weight [3, 16]: 27.93 ± 0.62
- Body Weight [3, 18]: 27.86 ± 0.52
- Body Weight [3, 20]: 28.07 ± 0.57
- Body Weight [3, 22]: 28.64 ± 0.57
- Body Weight ([3]; 100 mg/kg daily by gavage from 2 months (preventive), age 6 months): 30.23 ± 0.67
- Body Weight ([3]; 100 mg/kg daily by gavage from 2 months (preventive), age 7 months): 31.50 ± 0.87
- Body Weight ([3]; 100 mg/kg daily by gavage from 2 months (preventive), age 8 months): 30.78 ± 0.91
- Body Weight ([3]; 100 mg/kg daily by gavage from 5 months (therapeutic), age 2 months): 26.71 ± 0.74
- Body Weight ([3]; 100 mg/kg daily by gavage from 5 months (therapeutic), age 3 months): 28.14 ± 0.69
- Body Weight ([3]; 100 mg/kg daily by gavage from 5 months (therapeutic), age 4 months): 29.43 ± 1.01
- Body Weight ([3]; 100 mg/kg daily by gavage from 5 months (therapeutic), age 5 months): 29.71 ± 0.82
- Body Weight ([3]; 100 mg/kg daily by gavage from 5 months (therapeutic), age 6 months): 31.45 ± 0.96
- Body Weight ([3]; 100 mg/kg daily by gavage from 5 months (therapeutic), age 7 months): 30.80 ± 1.69
- Body Weight ([3]; 100 mg/kg daily by gavage from 5 months (therapeutic), age 8 months): 29.80 ± 1.46
- Body Weight [3, 23]: 27.85 ± 0.72
- Body Weight [3, 25]: 28.00 ± 0.68
- Body Weight [3, 27]: 28.92 ± 0.35
- Body Weight ([3]; 200 mg/kg daily by gavage from 2 months (preventive), age 6 months): 31.58 ± 0.43
- Body Weight ([3]; 200 mg/kg daily by gavage from 2 months (preventive), age 7 months): 30.82 ± 0.35
- Body Weight ([3]; 200 mg/kg daily by gavage from 2 months (preventive), age 8 months): 31.60 ± 0.52
- Body weight versus other experimental groups ([3]; all CYC202 groups): No difference
- Serum Transaminase ALT [4, 29]: 36.00 ± 2.45 IU/L
- Serum Transaminase AST [4, 29]: 74.40 ± 1.72 IU/L
- Serum transaminase levels (ALT and AST) ([4]; 200 mg/kg from 2 months or 100 mg/kg from 5 months, similar to control mice): not modified by treatments
- Serum Transaminase ALT ([4]; 200 mg/kg preventive): 36.44 ± 4.04 IU/L
- Serum Transaminase AST ([4]; 200 mg/kg preventive): 62.89 ± 4.70 IU/L
- Food Intake [5, 16]: 3.69 ± 0.33
- Food Intake [5, 17]: 3.77 ± 0.23
- Food Intake [5, 18]: 3.92 ± 0.18
- Food Intake [5, 19]: 4.08 ± 0.18
- Food Intake [5, 20]: 3.92 ± 0.26
- Food Intake [5, 21]: 3.85 ± 0.30
- Food Intake [5, 22]: 3.85 ± 0.22
- Food Intake [5, 23]: 3.54 ± 0.29
- Food Intake [5, 24]: 4.08 ± 0.08
- Food Intake [5, 25]: 4.00 ± 0.11
- Food Intake [5, 26]: 4.08 ± 0.21
- Food Intake ([5]; 200 mg/kg daily by gavage from 2 months (preventive), age 4 months): 4.00 ± 0.16
- Food Intake ([5]; 200 mg/kg daily by gavage from 2 months (preventive), age 4.5 months): 4.00 ± 0.18
- Food Intake [5, 27]: 3.92 ± 0.29
- Food intake versus vehicle [5, 28]: comparable

SMILES: Cc1nc(C)c(-c2ccnc(Nc3ccc(N(C)C)cc3)n2)s1 [Compound 4]
- IC50 [6]: 38 nM
- IC50 [7]: 7.46 µM
- IC50 [8]: 30 nM
- IC50 [9]: 1040 nM
- IC50 [10]: 1880 nM
- IC50 [11]: 8570 nM
- IC50 ([12]; PBMC, read-out: IC50 Used): 1000 nM
- BrdU incorporation ([13]; Example 3, PMA/I stimulated PBMCs, all concentrations): higher than in PHA stimulated cells
- BrdU incorporation ([13]; Example 4, PHA or ConA stimulated PBMCs, 0.25×IC50 to 4×IC50, 48 and 72 hours): BrdU signals do not reduce to background levels; also recorded: fails to achieve complete inhibition of proliferation activity

- IC50 [6]: > 10000 nM
- IC50 [14]: 19.3 µM
- IC50 [15]: 126 nM
- IC50 [7]: 7.6 µM
- IC50 [8]: > 10000 nM
- IC50 [9]: 9190 nM
- IC50 [10]: 338 nM
- IC50 [11]: 1330 nM
SMILES: CC[C@H](Nc1nc(NCc2cccnc2)c2ncn(C(C)C)c2n1)C(C)(C)O [Compound 6]
- IC50 ([12]; 72 h, read-out: IC50 Average): 10400 nM
- IC50 [12, 30]: 10000 nM

- IC50 [6]: 652 nM
- IC50 [7]: 1.99 µM
- IC50 [8]: 399 nM
- IC50 [9]: 168 nM
SMILES: CC[C@H](Nc1nc(NCc2cccnc2)c2ncn(C(C)C)c2n1)[C@@H](C)O [Compound 8]
- IC50 ([12]; 72 h, read-out: IC50 Average): 876 nM
- IC50 [12, 30]: 1000 nM

- IC50 [11]: 266 nM
SMILES: Cc1nc(N)sc1-c1ccnc(Nc2ccc(N3CCOCC3)cc2)n1 [Compound 11]
- IC50 ([12]; 72 h, read-out: IC50 Average): 291 nM
- IC50 [12, 30]: 500 nM

- IC50 [14]: 1.02 µM
- IC50 [7]: 1.03 µM
SMILES: CNc1nc(C)c(-c2ccnc(Nc3ccc(N4CCNCC4)cc3)n2)s1 [Compound 12]
- IC50 ([12]; 72 h, read-out: IC50 Average): 353 nM
- IC50 [12, 30]: 500 nM

From patent publication US8809350B2, “Purine and pyrimidine CDK inhibitors and their use for the treatment of autoimmune diseases” (priority 2004, dated 2014)
